Where two headings read alike, the source gives them in different places.
How the values were obtained:
[1] = intravenous; cited from earlier work
[2] = test system: passive cutaneous anaphylaxis; assay: passive cutaneous anaphylaxis test (PCA), antiallergic activity; format: in vivo; conditions: rats; for antiallergic activity (PCA), in words / ED50: per os; for ED50: Rattus norvegicus, po, read-out: ID 50 per os (reduction of 50% of the surface area of the colored spot)
Protocol: This activity is determined in rats by means of the passive cutaneous anaphylaxis test (PCA) (see J. GOOSE and A. M. J. N. BlAIR, Immunology, 16, (1969), 749-760; and […] and D. ROEMER, Arzneimittel-Forschung, 28, (5), (1978), 770-782). Female rats are used, the sides of which have been partly shaved. Into the zone thus shaved there is injected intradermally, for passive sensitization of the animals, 0.05 ml of IGE antiovalbumin serum at a dilution such that, at the time of the PCA test, a distinct spot with a surface area of about 100 mm^2 appears at the point of injection. […] At the point of intradermal injection, there appears a distinct blue spot, the surface of which is measured. In order to test the activity of the compounds according to the present invention, the procedure is carried out in the same manner; however, the test compound is administered orally 72 hours after injection of the serum; 15 minutes after this administration, 0.25 ml of the solution of the allergen is injected intravenously; 30 minutes after the administration of the allergen, the surface of the blue spot is measured.

[3] = test system: bronchospasms induced by histamine; assay: inhibition of histamine-induced bronchospasms (Konzett and Roessler), antihistaminic activity; format: in vivo, guinea pig; conditions: for ED50: Cavia porcellus, iv, read-out: ID 50, inhibition of bronchospasms induced by histamine
Protocol: (§1) Anaesthetized and curarized guinea pigs are subjected to artificial ventilation. The endotracheal pressure is recorded. Repetitive bronchial spasms are induced by successive and progressive intravenous injections of serotonin and histamine, respectively. The test compounds are also administered intravenously.

[4] = test system: bronchospasms induced by serotonin; assay: inhibition of serotonin-induced bronchospasms (Konzett and Roessler), spasmolytic activity; format: in vivo, guinea pig; conditions: for ED50: Cavia porcellus, iv, read-out: ID 50, inhibition of bronchospasms induced by serotonin
Protocol: as §1

[5] = test system: general behaviour of mice; assay: general behaviour of mice (Irwin's test), tranquilization; format: in vivo
mice = conditions: intraperitoneal, two animals out of three
Text: In the following Table IV, the lethal doses in mg/kg (two animals out of three) are given for compounds of the invention when administered intraperitoneally in mice:

[6] = J. med. Chem. 11 (1968), 390-391; cited from earlier work
[7] = Belgian Patent Specification No. 763,609; cited from earlier work
[8] = guinea pig, intravenous, histamine
[9] = guinea pig, intravenous, serotonin

Row | Structure (SMILES) | ED50 [3, 8] [µmol/kg] | ED50 ([2]; 15 minutes before allergen) [µmol/kg] | ED50 [4, 9] [µmol/kg] | Tranquilizing dose (first manifestations of tranquilization) ([5]; male mice, intraperitoneal) [mg/kg] | Lethal dose (2/3) (mice) [mg/kg] | further results
1 | O=C(O)c1cc(=O)c2c(OCC(O)COc3cccc4oc(C(=O)O)cc(=O)c34)cccc2o1 [sodium cromoglycate] | – | – | – | – | – | antiasthmatic activity [1]: well known for its antiasthmatic activity; ID 50 per os (reduction of 50% of the surface area of the colored spot) ([2]; 15 minutes before allergen): inactive; antiallergic activity (PCA), in words [2]: inactive
2 | Cl.Cl.NC(=O)COCCOCCN1CCN(C(c2ccccc2)c2ccccc2)CC1 [F, 2-[2-[2-[4-(Diphenylmethyl)-1-piperazinyl]ethoxy]ethoxy]-acetamide dihydrochloride] | 0.25 | 10.6 | 0.32 | 94 | 282 | –
3 | NC(=O)COCCN1CCN(C(c2ccccc2)c2ccc(Cl)cc2)CC1 (centres unmarked) [B, 2-[2-[4-[(4-chlorophenyl)phenylmethyl]-1-piperazinyl]ethoxy]-acetamide] | 0.45 | 36.5 | 0.88 | 38.7 | 232 | –
4 | O=C(O)CN1CCN(C(c2ccccc2)c2ccc(Cl)cc2)CC1 (centres unmarked) [Compound 4, reference compound] | 7.8 | > 320 | > 32 | – | – | activity with regard to bronchospasms induced by histamine (antihistaminic), in words [3, 8]: considerbly less active; antiallergic activity (PCA), in words [2]: of little interest; activity with regard to bronchospasms induced by serotonin (antispasmodic), in words [4, 9]: considerbly less active
5 | Cl.Cl.NC(=O)COCCN1CCN(C(c2ccccc2)c2ccccc2Cl)CC1 (centres unmarked) [D, 2-[2-[4-[(2-chlorophenyl)phenylmethyl]-1-piperazinyl]ethoxy]-acetamide dihydrochloride] | 0.63 | – | 1.1 | > 460 | 460 | –
6 | NC(=O)COCCN1CCN(C(c2ccccc2)c2ccccc2)CC1 [A, 2-[2-[4-(Diphenylmethyl)-1-piperazinyl]ethoxy]-acetamide] | 0.23 | – | 0.78 | – | 255 | –
7 | COc1ccc(C(c2ccccc2)N2CCN(CCOCC(N)=O)CC2)cc1.Cl.Cl (centres unmarked) [E, 2-[2-[4-[(4-methoxyphenyl)phenylmethyl]-1-piperazinyl]ethoxy]-acetamide dihydrochloride] | 0.67 | – | 10 | 136 | 456 | –
8 | O=C(O)COCCN1CCN(C(c2ccccc2)c2ccccc2)CC1 [K, 2-[2-[4-(diphenylmethyl)-1-piperazinyl]ethoxy]-acetic acid] | 0.093 | – | 9.5 | 106 | 708 | –
9 | NC(=O)CN1CCN(C(c2ccccc2)c2ccc(Cl)cc2)CC1 (centres unmarked) [Compound 2, 2-[4-[(4-chlorophenyl)phenylmethyl]-1-piperazinyl]-acetamide, reference compound] | 3.1 | > 320 | 11 | – | – | activity with regard to bronchospasms induced by histamine (antihistaminic), in words [3, 8]: considerbly less active; activity as a hypocholesteremic agent [6]: not very encouraging; antiallergic activity (PCA), in words [2]: of little interest; activity with regard to bronchospasms induced by serotonin (antispasmodic), in words [4, 9]: considerbly less active
10 | O=C([O-])COCCN1CCN(C(c2ccccc2)c2ccc(Cl)cc2)CC1.[K+] (centres unmarked) [H, potassium 2-[2-[4-[(4-chlorophenyl)phenylmethyl]-1-piperazinyl]ethoxy]-acetate] | – | – | – | 46.2 | – | ED50 [3]: 0.23 µmol/kg; ED50 [4]: 7 µmol/kg
11 | O=C1Nc2ccc(Cl)cc2C(c2ccccc2)=NC1O (centres unmarked) [Oxazepam, 7-chloro-1,3-dihydro-3-hydroxy-5-phenyl:2H-1,4-benzodiazepin-2-one, reference compound] | – | – | – | 2.6 | – | –
12 | O.O=C(O)COCCN1CCN(C(c2ccccc2)c2ccc(F)cc2)CC1 (centres unmarked) [N, 2-[2-[4-[(4-fluorophenyl)phenylmethyl]-1-piperazinyl]ethoxy]-acetic acid hydrate] | 0.08 | 10.2 | 2.1 | 372 | 372 | –
13 | Cl.Cl.O=C(O)COCCOCCN1CCN(C(c2ccccc2)c2ccc(Cl)cc2)CC1 (centres unmarked) [M, 2-[2-[2-[4-[(4-chlorophenyl)phenylmethyl]-1-piperazinyl]ethoxy]ethoxy]-acetic acid dihydrochloride] | 0.79 | – | 10 | 505 | 505 | –
14 | O=C(O)COCCN1CCN(C(c2ccccc2)c2ccc(Cl)cc2)CC1 (centres unmarked) [J, 2-[2-[4-[(4-chlorophenyl)phenylmethyl]-1-piperazinyl]ethoxy]-acetic acid] | – | – | – | 138 | – | antihistaminic activity retained ([3]; guinea pig, intravenous, 1 μmol/kg single dose, after 5 hours): 100%; ID 50, inhibition of bronchospasms induced by histamine [3, 8]: 0.20 µmol/kg; ID 50, inhibition of bronchospasms induced by serotonin [4, 9]: 7.3 µmol/kg
15 | OCCOCCN1CCN(C(c2ccccc2)c2ccc(Cl)cc2)CC1 (centres unmarked) [Hydroxyzine, 2-[2-[4-[(4-chlorophenyl)phenylmethyl]-1-piperazinyl]-ethoxy]-ethanol, reference compound] | – | – | – | – | – | Tranquilizing dose (first manifestations of tranquilization) ([5]; mouse, in vivo, ip): 27 mg/kg
16 | Cn1c(=O)c2[nH]cnc2n(C)c1=O [Theophylline, reference compound] | – | – | – | – | – | ED50 [3]: 10 µmol/kg; ED50 [4]: 10 µmol/kg
17 | Cl.Cl.O=C(O)COCCOCCN1CCN(C(c2ccccc2)c2ccccc2)CC1 [L, 2-[2-[2-[4-(diphenylmethyl)-1-piperazinyl]ethoxy]ethoxy]-acetic acid dihydrochloride] | 0.39 | – | 5.69 | 141 | 942 | –
18 | NC(=O)CN1CCN(C(c2ccccc2)c2ccccc2)CC1 [Compound 1, 2-[4-(diphenylmethyl)-1-piperazinyl]-acetamide, reference compound] | 2.1 | > 320 | 77 | – | – | activity with regard to bronchospasms induced by histamine (antihistaminic), in words [3, 8]: considerbly less active; antiallergic activity (PCA), in words [2]: of little interest; diuretic activity [7]: possesses a diuretic activity; activity with regard to bronchospasms induced by serotonin (antispasmodic), in words [4, 9]: considerbly less active
19 | O=C(O)COCCN1CCN(C(c2ccccc2)c2ccc(Cl)cc2)CC1 (centres unmarked) [I, 2-[2-[4-[(4-chlorophenyl)phenylmethyl]-1-piperazinyl]ethoxy]-acetic acid] | 0.205 | – | 9.44 | – | – | –
20 | NC(=O)COCCN1CCN(C(c2ccccc2)c2ccc(F)cc2)CC1 (centres unmarked) [C, 2-[2-[4-[(4-fluorophenyl)phenylmethyl]-1-piperazinyl]ethoxy]-acetamide] | 0.71 | 18.9 | 0.94 | 115 | 386 | –
21 | O=C(O)CN1CCN(C(c2ccccc2)c2ccccc2)CC1 [Compound 3, 2-[4-(diphenylmelthyl)-1-piperazinyl]-acetic acid, reference compound] | 5 | > 320 | > 32 | – | – | activity with regard to bronchospasms induced by histamine (antihistaminic), in words [3, 8]: considerbly less active; antiallergic activity (PCA), in words [2]: of little interest; activity with regard to bronchospasms induced by serotonin (antispasmodic), in words [4, 9]: considerbly less active
22 | Cl.Cl.NC(=O)COCCOCCN1CCN(C(c2ccccc2)c2ccc(Cl)cc2)CC1 (centres unmarked) [G, 2-[2-[2-[4-[(4-chlorophenyl)phenylmethyl]-1-piperazinyl]ethoxy]ethoxy]-acetamide dihydrochloride] | 1.14 | – | 0.66 | 34 | 339 | –
